Experiment [1] has as its system plasmas riches en plaquettes provenant de sang de rat. Briefly: Platelet anti-aggregation in vitro, ADP-induced (Born aggregometer). The format is cell-based. To be noted: in vitro, aggregating agent ADP, rat platelet-rich plasma, 37°; M not defined in the text; mM printed only in the TICLOPIDINE line. The procedure: Les études ont été réalisées sur des plasmas riches en plaquettes provenant de sang de rat, l'agrégation étant induite par addition d'acide Adénosine diphosphorique. Les courbes néphélométriques d'agrégation sont obtenues en utilisant un agrégomètre de type BORN, le plasma étant placé en incubation à 37° avec agitation continue de 1100 t/mn (cf. BORN G.V.R et CROSS J. - J. Physiol. 168 (1962) 178.

The next experiment has as its target T1, lipoxygénase de soja (Glycine max, UniProt P08170).
T1 sequence (P08170 1-839): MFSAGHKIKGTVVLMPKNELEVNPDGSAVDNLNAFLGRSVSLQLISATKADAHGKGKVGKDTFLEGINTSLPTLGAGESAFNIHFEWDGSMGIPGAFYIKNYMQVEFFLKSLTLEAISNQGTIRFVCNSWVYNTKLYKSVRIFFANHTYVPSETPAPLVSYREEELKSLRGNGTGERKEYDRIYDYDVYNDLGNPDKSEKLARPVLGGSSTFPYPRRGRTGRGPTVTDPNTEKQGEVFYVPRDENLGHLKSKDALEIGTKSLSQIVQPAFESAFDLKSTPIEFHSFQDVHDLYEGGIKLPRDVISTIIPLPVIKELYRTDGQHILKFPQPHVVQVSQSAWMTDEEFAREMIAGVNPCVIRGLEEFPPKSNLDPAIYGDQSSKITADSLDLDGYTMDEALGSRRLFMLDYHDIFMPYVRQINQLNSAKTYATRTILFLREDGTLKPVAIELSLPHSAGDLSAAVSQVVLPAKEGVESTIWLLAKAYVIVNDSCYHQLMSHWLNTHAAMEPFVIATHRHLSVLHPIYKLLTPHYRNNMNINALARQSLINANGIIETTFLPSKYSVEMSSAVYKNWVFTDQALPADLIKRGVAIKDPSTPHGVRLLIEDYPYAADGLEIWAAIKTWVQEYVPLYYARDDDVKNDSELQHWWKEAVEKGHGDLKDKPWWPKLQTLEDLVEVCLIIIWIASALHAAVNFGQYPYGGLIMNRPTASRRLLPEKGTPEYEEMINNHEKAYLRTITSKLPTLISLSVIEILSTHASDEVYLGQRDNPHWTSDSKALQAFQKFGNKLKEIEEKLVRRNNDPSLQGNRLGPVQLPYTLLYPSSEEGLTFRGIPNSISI
Nature of the experiment: Anti-lipoxygenase action on soybean lipoxygenase. The format is biochemical. An excerpt: L'action anti-lipoxygénase a été étudiée sur la lipoxygénase de soja selon la méthode décrite par W.L SMITH et W.E LANDS (J. Biol. Chem. 247 (1972) 1038-1047)

The test system of another experiment is SOURIS. Nature of the experiment: Diuretic activity in the mouse (hourly urine volume, sodium and potassium assay). To be noted: S = SOURIS. In kind it is in vivo. The source says:
(§1) d'urine sont déterminés toutes les heures. Le dosage de sodium et du potassium est effectué par spectrophotométrie.

The subject of another experiment is RAT. Nature of the experiment: Diuretic activity in the rat (hourly urine volume, sodium and potassium assay). To be noted: po; R = RAT; diuretic activity; read-out: Dose minimale active. In kind it is in vivo.
Source text: as §1

Another experiment concerns the target T2, ECHANGEUR D'ANIONS (Homo sapiens, UniProt P02730).
T2 construct: systèmes de transport du sodium et du potassium des érythrocytes humains; endogenous in cells; host or cells: human erythrocytes
T2 sequence (P02730 1-911): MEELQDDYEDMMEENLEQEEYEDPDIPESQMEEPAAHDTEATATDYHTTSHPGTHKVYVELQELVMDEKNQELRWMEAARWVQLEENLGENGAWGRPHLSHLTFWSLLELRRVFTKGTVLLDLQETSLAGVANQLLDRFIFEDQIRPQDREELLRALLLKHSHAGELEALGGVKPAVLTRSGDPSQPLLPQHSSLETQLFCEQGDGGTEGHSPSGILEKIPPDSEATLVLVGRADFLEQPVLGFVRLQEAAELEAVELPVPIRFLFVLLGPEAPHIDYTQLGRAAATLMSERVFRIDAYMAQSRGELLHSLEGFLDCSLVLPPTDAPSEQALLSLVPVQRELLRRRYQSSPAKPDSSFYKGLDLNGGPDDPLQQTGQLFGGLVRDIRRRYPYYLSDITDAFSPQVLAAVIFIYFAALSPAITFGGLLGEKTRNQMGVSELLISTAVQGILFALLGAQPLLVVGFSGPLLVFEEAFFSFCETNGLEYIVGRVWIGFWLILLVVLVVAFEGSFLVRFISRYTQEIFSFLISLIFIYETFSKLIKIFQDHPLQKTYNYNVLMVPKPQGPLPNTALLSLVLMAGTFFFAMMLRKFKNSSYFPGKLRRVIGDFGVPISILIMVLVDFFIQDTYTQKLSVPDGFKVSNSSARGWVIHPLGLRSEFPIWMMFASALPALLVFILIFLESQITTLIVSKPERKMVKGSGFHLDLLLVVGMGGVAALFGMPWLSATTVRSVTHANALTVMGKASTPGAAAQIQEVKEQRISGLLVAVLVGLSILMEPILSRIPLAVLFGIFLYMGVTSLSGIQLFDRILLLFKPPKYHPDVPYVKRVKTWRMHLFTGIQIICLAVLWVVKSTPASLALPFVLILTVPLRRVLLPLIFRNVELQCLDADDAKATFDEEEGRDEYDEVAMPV
Nature of the experiment: Anion exchanger of human erythrocytes. In kind it is cell-based, ERYTHROCYTES HUMAINS. An excerpt:
Cet effet a été étudié selon la méthodologie décrite par G. GARAY et coll. dans Naunyn-Schmidberg's Arch. Pharmakol. 334 (1986) 202-209 et dans Bioch. Pharm. 33 (1984) 2013-2020.

Another experiment deals with T3, COTRANSPORT Na-K (Homo sapiens, UniProt P55011).
T3 construct: systèmes de transport du sodium et du potassium des érythrocytes humains; endogenous in cells; host or cells: human erythrocytes
T3 sequence (P55011 1-1212): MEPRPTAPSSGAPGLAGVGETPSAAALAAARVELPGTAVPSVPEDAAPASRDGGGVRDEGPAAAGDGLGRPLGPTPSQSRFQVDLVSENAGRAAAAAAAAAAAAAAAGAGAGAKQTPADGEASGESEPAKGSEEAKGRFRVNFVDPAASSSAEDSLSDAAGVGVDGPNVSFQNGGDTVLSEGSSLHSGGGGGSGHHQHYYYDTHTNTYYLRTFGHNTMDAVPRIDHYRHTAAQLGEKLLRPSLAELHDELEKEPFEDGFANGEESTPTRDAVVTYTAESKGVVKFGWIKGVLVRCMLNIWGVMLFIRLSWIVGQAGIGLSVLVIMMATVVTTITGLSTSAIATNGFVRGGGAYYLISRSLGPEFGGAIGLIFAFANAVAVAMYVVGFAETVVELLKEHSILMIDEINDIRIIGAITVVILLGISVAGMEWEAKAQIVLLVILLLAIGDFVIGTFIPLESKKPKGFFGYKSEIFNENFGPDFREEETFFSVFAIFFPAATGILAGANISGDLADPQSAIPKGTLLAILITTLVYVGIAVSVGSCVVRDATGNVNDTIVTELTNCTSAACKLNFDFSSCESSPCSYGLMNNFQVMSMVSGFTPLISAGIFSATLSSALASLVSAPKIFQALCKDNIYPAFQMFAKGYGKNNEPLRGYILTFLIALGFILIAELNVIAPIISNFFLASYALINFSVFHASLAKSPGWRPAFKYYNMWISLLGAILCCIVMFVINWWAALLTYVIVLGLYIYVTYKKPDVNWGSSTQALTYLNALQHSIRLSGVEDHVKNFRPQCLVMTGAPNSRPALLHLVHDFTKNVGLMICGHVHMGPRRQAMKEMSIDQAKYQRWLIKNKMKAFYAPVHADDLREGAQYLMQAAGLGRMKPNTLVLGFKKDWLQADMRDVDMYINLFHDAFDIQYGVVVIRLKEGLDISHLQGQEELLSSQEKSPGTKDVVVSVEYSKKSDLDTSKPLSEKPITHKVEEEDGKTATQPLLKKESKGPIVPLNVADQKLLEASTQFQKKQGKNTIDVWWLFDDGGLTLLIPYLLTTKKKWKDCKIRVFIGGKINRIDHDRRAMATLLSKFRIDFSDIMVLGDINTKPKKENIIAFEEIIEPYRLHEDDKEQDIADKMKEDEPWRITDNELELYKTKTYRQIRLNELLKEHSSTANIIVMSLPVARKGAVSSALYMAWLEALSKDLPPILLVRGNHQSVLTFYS
Nature of the experiment: Na-K cotransport of human erythrocytes. In kind it is cell-based, ERYTHROCYTES HUMAINS. To be noted: human erythrocytes. An excerpt: Cet effet a été étudié selon la méthodologie décrite par G. GARAY et coll. dans Naunyn-Schmidberg's Arch. Pharmakol. […] Pharm.

In experiment [2] the test system is rats mâles SHR (souche OKAMOTO). Briefly: Antihypertensive action in the non-anaesthetised SHR rat (systolic blood pressure, sphygmomanometric method). In kind it is in vivo. To be noted: 60 mg/kg PO, acute or chronic not given, 24 h after dosing. An excerpt:
L'étude a été effectuée sur des lots de rats mâles SHR (souche OKAMOTO) âgés de 16 semaines. La pression artérielle systolique est déterminée par la méthode sphygmomanométrique (électro sphygmogra- phe NARCO biosystems type PE 300). Les mesures de tension sont réalisées 24 heures après administration d'un composé de formule générale I, la pression artérielle systolique est calculée à partir de la moyenne de 6 à 8 mesures.

Setting [3] is: PO, at the dose (minimal active dose).

As for `COc1cccc(CCOc2ccc(F)cc2)c1` [ex 169], the “M à 50” value in experiment [1] is given as “inactif”. Besides, on lipoxygénase de soja, the “ACTIVITE ANTI-LIPOXYGENASE IC 50” value was “Inactif”. Further, in the experiment on SOURIS (setting [3]), the “Pouvoir diurétique en %” value is recorded as “Inactif” and the “Rapport Na/K en %” value is listed as “Inactif”. Also, the minimal effective dose with RAT amounted to 12 mg/kg. Further, the “EFFET SUR L'ECHANGEUR D'ANIONS IC 50” value on ECHANGEUR D'ANIONS is listed as “Non actif”. The “EFFET SUR LE COTRANSPORT Na-K IC 50” value at COTRANSPORT Na-K was “Non actif”.
On to `NS(=O)(=O)c1cc2c(cc1Cl)NCNS2(=O)=O` [HYDROCHLOROTHIAZIDE], for which the “Variation de l'effet anti-hyper-tenseur 24 heures après produit” value in experiment [2] was “FUROSEMIDE non actif HYDROCHLOROTHIAZIDE non actif”.
On to `NS(=O)(=O)c1cc(C(=O)O)c(NCc2ccco2)cc1Cl` [FUROSEMIDE, reference compound], for which the minimal effective dose in the experiment on SOURIS (Mus musculus, po, diuretic activity, read-out: Dose minimale active) was 25 mg/kg; in the experiment on RAT it was 12 mg/kg. For the same molecule, the “Variation de l'effet anti-hyper-tenseur 24 heures après produit” value in experiment [2] was “FUROSEMIDE non actif HYDROCHLOROTHIAZIDE non actif”.

The record behind these values is patent EP0428423A2, “Aryloxy alkyl benzenes, processes for their preparation and pharmaceutical compositions containing them” (LIPHA S.A., priority 1989, dated 1991).
